This note sets out measurements from US9920014B2, “Selective inhibition of bacterial topoisomerase I” (THE FLORIDA INTERNATIONAL BOARD OF TRUSTEES MODESTO A. …, priority 2013, dated 2018).

The assay deals with E. coli DNA Gyrase (Escherichia coli, UniProt P0AES4+P0AES6). In words: Inhibition assay against E. coli DNA gyrase (plasmid supercoiling, agarose gel). Type of assay: biochemical. The conditions noted are these: 1 to 50 μM compound. On the procedure: Inhibition Assays Against E. coli DNA Gyrase:
The reaction mixture (30 μl) contained 35 mM Tris-HCl at pH 7.5, 24 mM KCl, 4 mM MgCl2, 2 mM DTT, 1.75 mM ATP, 5 mM spermidine, 0.1 mg/ml BSA, 6.5% glycerol, 250 ng of the relaxed plasmid pBAD-GFPuv, 0.5 units of E. coli DNA Gyrase, and one of the compounds at a final concentration that ranges from 1 to 50 μM. All components were assembled on ice and incubated for 30 minutes at 37° C. After the incubation, the reactions were terminated by extraction with an equal volume of phenol. The topological state of the DNA samples was analyzed with 1% agarose gel electrophoresis in 1×TAE buffer, pH 7.8. Following electrophoresis, the agarose gel was stained with Ethidium Bromide, destained, and photographed under UV light. The intensity of DNA topoisomers was determined using KODAK 1D Image Analysis Software.

Sequence of E. coli DNA Gyrase (P0AES4 whole entry, one chain of several): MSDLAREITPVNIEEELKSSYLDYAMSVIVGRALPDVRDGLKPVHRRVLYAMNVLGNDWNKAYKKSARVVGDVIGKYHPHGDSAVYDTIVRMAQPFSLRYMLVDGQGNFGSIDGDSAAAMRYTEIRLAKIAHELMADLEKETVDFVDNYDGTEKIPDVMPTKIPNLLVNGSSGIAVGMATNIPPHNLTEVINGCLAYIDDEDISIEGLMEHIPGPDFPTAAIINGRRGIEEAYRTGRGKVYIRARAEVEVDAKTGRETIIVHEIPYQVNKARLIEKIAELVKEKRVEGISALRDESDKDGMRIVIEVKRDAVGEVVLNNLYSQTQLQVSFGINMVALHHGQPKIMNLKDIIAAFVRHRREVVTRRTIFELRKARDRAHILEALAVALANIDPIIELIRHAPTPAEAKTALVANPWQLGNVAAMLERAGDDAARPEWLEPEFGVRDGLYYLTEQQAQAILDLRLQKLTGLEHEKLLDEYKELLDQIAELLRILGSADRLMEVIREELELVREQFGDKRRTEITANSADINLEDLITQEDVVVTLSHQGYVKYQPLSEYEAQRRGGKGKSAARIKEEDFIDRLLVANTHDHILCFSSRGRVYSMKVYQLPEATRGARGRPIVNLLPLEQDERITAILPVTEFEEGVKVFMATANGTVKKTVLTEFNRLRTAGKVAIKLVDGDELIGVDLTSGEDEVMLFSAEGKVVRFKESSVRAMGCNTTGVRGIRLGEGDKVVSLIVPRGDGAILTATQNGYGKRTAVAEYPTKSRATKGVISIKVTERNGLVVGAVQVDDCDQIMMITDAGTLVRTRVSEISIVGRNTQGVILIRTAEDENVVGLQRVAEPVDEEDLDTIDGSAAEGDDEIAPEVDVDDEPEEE

As to `CN1CCN(c2ccc3[nH]c(-c4ccc5[nH]c(-c6ccc(O)cc6)nc5c4)nc3c2)CC1` [Hoechst 33258, reference compound], the “inhibition of DNA gyrase's activities” value was “did not inhibit”.
